According to patent US20210221777A1, “NOVEL COMPOUNDS RELATED TO MY[…] METHODS OF TREATING CANCER” (priority 2020, published 2021):
Where two headings read alike, the source gives them in different places.

Experiments:
[1] = Shelf life / preservation studies (1H NMR)
Text: Our final approach reinvestigating 1 involved exploring the relevance of the C(8)-OH stereocenter and labile C-14/C-19 diene system for their SAR significance related to the cytotoxicity of 1 against tumor cell lines.

[2] = tested on: hypoxia-induced factor (HIF-1) signaling in T47D breast tumor cells; conditions: cited from earlier work; for IC50: hypoxia-induced, read-out: IC50 against HIF-1 signaling
[3] = tested on: pancreatic (PANC-1) tumor cell lines; test: Cytotoxicity vs. PANC-1 tumor cell line
[4] = tested on: pancreatic (PANC-1), liver (HepG2), and colon (HCT-116) tumor cell lines; test: Cytotoxicity of fresh 1, summary over PANC-1, HepG2 and HCT-116; format: cell-based
[5] = Sample storage degradation experiments a-e followed by LCMS; format: physicochemical; conditions: 24 hrs
Text: Recent work in our laboratory using HPLC during the scale up isolation of mycothiazole (1) hinted that mycothiazole-4,19-diol (7)^6 may also be an artifact of isolation encountered during routine purification of degraded 1. To test this hypothesis, we subjected freshly purified 1 to a variety of sample storage experimental conditions (a-e) summarized in Table 2. Analytical (LCMS) data was used to determine purity outcomes of 1 in terms of its observed degradation which is summarized at the bottom of Table 2 and in FIG. 2. […] Furthermore, the diagnostic MS m/z ion peak (439, [M+H]^+)^6 characteristic of 7 was also observed in samples b-c and e, but not in a or d, as shown in FIG. 2. Selected examples included molecular ion peaks of 421 m/z and 437 m/z. We were unable to pursue full or even partial structure elucidation of these components or the observed 439 m/z ion peak, using NMR studies, due to insufficient material.

[6] = tested on: colon (HCT-116) tumor cell line; conditions: literature value, may be inaccurate due to compound degradation, read-out: HCT 116 IC50 (Sashidhara et al., 2009); cited from earlier work
[7] = tested on: human colon tumor (HCT-15) cell lines; conditions: Manta et al., read-out: GI50 against HCT-15; cited from earlier work
solid tumor cell lines = conditions: read-out: cytotoxicity IC50 against a wide variety of solid tumor cell lines; range over literature cell lines; cited from earlier work
[8] = tested on: colon (HCT-116) tumor cell line; test: Cytotoxicity vs. HCT 116 tumor cell line; format: cell-based; conditions: this work, ± SEM, N = 2
[9] = read-out: PANC-1 IC50, PANC-1, this work, ± SEM, N = 2
[10] = a) standard protocol: amber vial, Argon, dark desiccator under vacuum
[11] = b) MeOH-O2 (air stream), amber vial, room temp. 22° C.
[12] = c) MeOH-N2 (N2 stream), amber vial, room temp. 22° C.
[13] = d) refrigeration 4° C., amber vial, Argon
[14] = e) direct light (hv), clear vial, 24° C.

Question: For “8-O-acetyl-mycothiazole [8-O-acetyl-mycothiazole (2)]”, which “time stable in preservation studies using 1H NMR” value ([1]; stored by standard storage protocol (Table 2a), more stable than 1) is on record?
Answer: Its value is no less than 6 months.

Question: And the IC50 [2]?
Answer: The IC50 was roughly 1 nM.

Question: And the IC50 [3, 9]?
Answer: The IC50 was 1.3 nM.

Question: For `C=CC/C=C\Cc1csc(C(C)(C)C(=O)C/C=C\C(=C)CCNC(=O)OC)n1` [8-Oxo-mycothiazole (8), 8-oxo-mycothiazole], which “fold less potent than 1 (cytotoxicity)” value ([3]; PANC-1, relative to 1) is on record?
Answer: The value was 10,000 times.

Question: And the IC50 [3, 9]?
Answer: Its IC50 is 2000 nM.

Question: With `C=CC/C=C\Cc1csc(C(C)(C)[C@H](O)C/C=C\C(=C)CCNC(=O)OC)n1` [mycothiazole (1), mycothiazole] as the compound, how does the “increase in potency of fresh 1 versus earlier data” value ([4]; PANC-1, HepG2, HCT-116) read?
Answer: The value was “tenfold increase”.

Question: What about the IC50 ([4]; range over PANC-1, HepG2, HCT-116, read-out: IC50 of fresh 1 across three tumor cell lines) of the same compound?
Answer: Its IC50 is 0.16 to 0.36 nM.

Question: And the “analytical LCMS data UV-PDA maximum absorbance units of 1” value [5, 10]?
Answer: Its value is 500000 AU.

Question: What about the “purity outcomes of 1 involving its degradation” value (“purity outcomes” for short) [5, 10] of the same compound?
Answer: The value was “minimal degradation”.

Question: What about the “MS-TIC of visible impurity peaks” value [5, 11] of the same compound?
Answer: Its value is ~45% relative % relative abundance of m/z io.

Question: What about the “analytical LCMS data UV-PDA maximum absorbance units of 1” value [5, 11] of the same compound?
Answer: Its value is 500000 AU.

Question: And the “purity outcomes” value [5, 11]?
Answer: The value was “partial degradation”.

Question: And the “MS-TIC of visible impurity peaks” value [5, 12]?
Answer: Its value is ~45% relative % relative abundance of m/z io.

Question: What about the “analytical LCMS data UV-PDA maximum absorbance units of 1” value [5, 12] of the same compound?
Answer: The value was 500000 AU.

Question: And the “purity outcomes” value [5, 12]?
Answer: Its value is “partial degradation”.

Question: What about the “MS-TIC of visible impurity peaks” value [5, 13] of the same compound?
Answer: Its value is ~20% relative % relative abundance of m/z io.

Question: What about the “analytical LCMS data UV-PDA maximum absorbance units of 1” value [5, 13] of the same compound?
Answer: The value was 500000 AU.

Question: And the “purity outcomes” value [5, 13]?
Answer: Its value is “minimal degradation”.

Question: And the “MS-TIC of visible impurity peaks” value [5, 14]?
Answer: The value was ~60% relative % relative abundance of m/z io.

Question: What about the “analytical LCMS data UV-PDA maximum absorbance units of 1” value [5, 14] of the same compound?
Answer: Its value is 280000 AU.

Question: What about the “purity outcomes” value [5, 14] of the same compound?
Answer: The value was “severe degradation”.

Question: What about the shelf life ([1]; pure 1, storage protocols a or d of Table 2) of the same compound?
Answer: Its shelf life is 3-6 weeks.

Question: And the stability on storage ([1]; stored at 4° C.)?
Answer: Its stability on storage is “unstable”.

Question: And the IC50 [6]?
Answer: Its IC50 is 3.8 ± 0.24 nM.

Question: And the GI50 [7]?
Answer: The GI50 was 44000 nM.

Question: What about the IC50 [2] of the same compound?
Answer: The IC50 was roughly 1 nM.

Question: And the IC50 (solid tumor cell lines)?
Answer: The IC50 was 0.36 to 13.8 nM.

Question: What about the IC50 ([3]; Homo sapiens, PANC-1, read-out: PANC-1 IC50) of the same compound?
Answer: Its IC50 is 0.16 nM.

Question: For `C=CC/C=C\Cc1csc(C(C)(C)[C@H](O)C/C=C/C(O)(CO)CCNC(=O)OC)n1` (stereo partly drawn) [mycothiazole-4,19-diol (7), mycothiazole-4,19-diol, reference compound], which IC50 [8] is on record?
Answer: The IC50 was greater than 1000 nM.

Question: What about the “times less potent than 1 or 2 at suppression of hypoxia-induced HIF-1 activation” value [2] of the same compound?
Answer: Its value is “at least 1000 times”.
